Three substances from patent US8093374B2, “Bismuth hyaluronate, the preparation method and the use thereof” (priority 2005, dated 2012) can be followed below.

Marks after values point to notes of the source that are not given here.

The test system of test [1] is acetic acid-induced gastric ulcer. The test is described as follows: Protecting effect on acetic acid-induced gastric ulcer in rats. The format is in vivo, Female Wistar rats. The following applies: for Area of Ulcer (x ± s): intragastric once daily for 10 consecutive days, negative control 15.71 ± 2.20; for Inhibition of Ulcer: intragastric once daily for 10 days, percentage of the control. From the text: Female Wistar rats weighing 150 to 200 g were used. Following the method described in literatures ((1) Pharmacological Test Methodology, 2nd edition, Beijing, People's Health Press, 1991, 1158-1160; (2) Guidelines for preclinical studies of new drugs (western medicines) (pharmacy, pharmacology, toxicology), 1993, 88-89), a model of acetic acid-induced gastric ulcer was made. Specifically, in an area of 5 mm in diameter on the serosal side of the body of stomach in rats under anesthesia with ether, gastric ulcer was induced by treatment with 0.2 ml of glacial acetic acid for 1.5 min. On the next day following the operation, animals were randomly divided into 6 groups and started on oral administration, with distilled water as negative control and colloidal bismuth pectin as positive control. The test samples are the bismuth hyaluronate of the present invention prepared according to the Preparation Example 1 (having a glucuronate content of 27.9% and a bismuth content of 30.7%) and the starting material sodium hyaluronate (having an average molecular weight of 9.1×10^5 and a glucuronate content of 38.9%). The rats received intragastric administration once daily in a volume of about 10 ml for 10 consecutive days. Then the animals were sacrificed, and their stomachs were removed and fixed in a formaldehyde solution. After dissection, the size of the gastric ulcer was determined by measuring under microscope the maximum longitudinal diameter (d1) and the maximum transverse diameter (d2) through the center of the ulcer, and calculating the area of ulcer using the following equation: S=π×(d1/2)×(d2/2). The inhibition of ulcer was expressed as the percentage of the control.

The test system of test [2] is hydrochloric acid-ethanol-induced injury to gastric mucosa. Description: Prevention and treatment of hydrochloric acid-ethanol-induced injury to gastric mucosa in rats. The format is in vivo, Female Wistar rats. Particulars: for Length of injury (x ± s): sacrificed 1 h after, negative control 97.50 ± 13.28. Here is the method: Female Wistar rats weighing 150 to 200 g were used. Following the method described in the literature (Methodology of pharmacological studies of Chinese medicines, Beijing, People's Health Press, 1994: 441). The rats were fasted, with access to water, for 24 h. Then the rats were randomly divided (see above) and received intragastric administration. 30 min after the administration, each rat was drenched with hydrochloric acid-ethanol (a mixture of 50 ml of absolute ethanol and 1 ml of concentrated hydrochloric acid) at a dose of 0.5 ml/100 g of body weight. 1 h after the treatment with acidified ethanol, the animals were sacrificed, and their stomachs were removed and fixed in a formaldehyde solution. The stomach was cut open along the greater curvature and washed for examination of the injury to the gastric mucous membrane.

Setting [3] is: 50 mg/kg intragastric 30 min before hydrochloric acid-ethanol.
The mark [4] stands for this setting: 100 mg/kg intragastric 30 min before hydrochloric acid-ethanol.
Setting [5] is: 150 mg/kg intragastric 30 min before hydrochloric acid-ethanol.

For the substance bismuth hyaluronate, the “Area of Ulcer (x ± s)” value was 5.92 ± 2.27** mm^2 in test [1] (50 mg/kg), 4.98 ± 1.15***^Δ mm^2 in test [1] (100 mg/kg) and 4.05 ± 1.62***^ΔΔ mm^2 in test [1] (150 mg/kg). The “Inhibition of Ulcer” value in test [1] (50 mg/kg) is recorded as 62.32%; in test [1] (100 mg/kg), 68.30%; in test [1] (150 mg/kg), 74.22%; in test [2] (setting [3]), 72.78%; in test [2] (setting [4]), 92.93%; in test [2] (setting [5]), 92.70%. In test [1] (rats, summary of Table 2), the “inhibition of acetic acid-induced gastric ulcer (in words)” value was “statistically significant inhibition”. In addition, the “inhibition of acetic acid-induced gastric ulcer compared with colloidal bismuth pectin (in words)” value in test [1] (rats, versus positive control) was “significantly higher than the positive control”. The “Length of injury (x ± s)” value in test [2] (setting [3]) is given as 26.54 ± 7.88***^ΔΔ mm; in test [2] (setting [4]), 6.89 ± 1.86***^ΔΔΔ mm; in test [2] (setting [5]), 7.11 ± 2.13***^ΔΔΔ mm. For the same substance, the “inhibition of acidified ethanol-induced gastric ulcer (in words)” value in test [2] (rats, summary of Table 3) is listed as “statistically significant inhibition”. Besides, the “inhibition of acidified ethanol-induced gastric ulcer compared with colloidal bismuth pectin (in words)” value in test [2] (rats, versus positive control) was “significantly higher than the positive control”.
Take “colloidal bismuth pectin [reference compound]”: in test [1] (150 mg/kg), the “Area of Ulcer (x ± s)” value was 7.15 ± 2.03* mm^2 and the “Inhibition of Ulcer” value stood at 54.48%. Further, in test [2] (setting [5]), the “Inhibition of Ulcer” value was 55.24% and the “Length of injury (x ± s)” value stood at 43.64 ± 9.55 mm.
Take sodium hyaluronate [reference compound]: in test [1] (150 mg/kg), the “Area of Ulcer (x ± s)” value came out at 10.25 ± 2.29 mm^2 and the “Inhibition of Ulcer” value is 34.75%. Also, in test [2] (setting [5]), the “Inhibition of Ulcer” value is listed as 48.16% and the “Length of injury (x ± s)” value is on record as 50.54 ± 11.98 mm.
